This experiment deals with T1, HCV NS3 helicase NS3h_1b(con1) (Hepatitis C virus genotype 1b, UniProt Q9WMX2).
T1 construct: truncated C-terminally His-tagged NS3 proteins lacking the N-terminal protease, called NS3h; His-tag (C); made in house
Description: MBHA screen of NCI mechanistic set library at 20 μM (percent inhibition, compound interference). In kind it is biochemical. Particulars: compounds at 20 μM; for Inh. (%) (Inhibition): calculated from Equation 1. The method, boiled down:
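Molecular beacon-based DNA unwinding assay; compounds screened at 20 μM in triplicate, with DMSO-only negative and 500 nM dT20 positive controls. Fluorescence (ex 643/em 670 nm) was read before and 30 min after adding ATP to 1 mM. Percent inhibition came from the change relative to DMSO controls; interference from pre-ATP fluorescence versus DMSO controls.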

Setting [1] is: MBHA with DNA substrate, assay interference calculated with Equation 2.
The mark [2] stands for this setting: assay interference calculated with Equation 2 (fluorescence vs DMSO-only controls before ATP).

T1 sequence (Q9WMX2 1192-1657): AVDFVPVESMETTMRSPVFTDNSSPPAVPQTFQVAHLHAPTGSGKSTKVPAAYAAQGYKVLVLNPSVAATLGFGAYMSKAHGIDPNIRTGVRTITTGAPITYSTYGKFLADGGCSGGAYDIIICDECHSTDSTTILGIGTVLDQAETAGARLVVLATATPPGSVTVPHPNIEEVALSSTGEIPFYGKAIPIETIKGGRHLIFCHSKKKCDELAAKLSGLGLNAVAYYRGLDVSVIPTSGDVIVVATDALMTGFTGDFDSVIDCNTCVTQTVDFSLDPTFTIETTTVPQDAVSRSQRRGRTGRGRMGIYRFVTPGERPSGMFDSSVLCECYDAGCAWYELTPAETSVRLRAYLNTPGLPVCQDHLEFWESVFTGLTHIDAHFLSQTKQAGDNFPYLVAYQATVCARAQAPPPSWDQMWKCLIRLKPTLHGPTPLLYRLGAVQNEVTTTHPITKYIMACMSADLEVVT

In the case of `CCOc1ccccc1NC(=O)CC1Sc2ccccc2NC1=O` (centres unmarked) [Compound 637680], the “Int.* (Ratio) (Interference)” value under setting [1] is on record as 0.91 Ratio. In addition, the “Inh. (%) (Inhibition)” value (MBHA with DNA substrate) is recorded as 21.2%.

For the compound `O=C1C=C(Nc2cccnc2)c2ccccc2C1=O` [Compound 637729], the “Inh. (%) (Inhibition)” value (MBHA with a DNA substrate) is reported as −3.8%. The “Int.* (Ratio) (Interference)” value under setting [2] is 0.97 Ratio.

For `O=C1C=C(NCCc2ccccc2)c2ccccc2C1=O` [Compound 637731], where the note is “MBHA with a DNA substrate”, the “Inh. (%) (Inhibition)” value is −5.3%. Besides, the “Int.* (Ratio) (Interference)” value under setting [2] was 1.07 Ratio.

Regarding `CC(=O)SC(SC(C)=O)SC(C)=O` [Compound 637833], under setting [1], the “Int.* (Ratio) (Interference)” value is listed as 0.80 Ratio. Further, the “Inh. (%) (Inhibition)” value (MBHA with DNA substrate) was −17.2%.

Consider `N#CCCN(c1ccc(C=O)cc1)S(=O)(=O)c1ccccc1` [Compound 637914], for which the “Int.* (Ratio) (Interference)” value under setting [1] is listed as 1.01 Ratio. In addition, the “Inh. (%) (Inhibition)” value (MBHA with DNA substrate) is reported as −11.0%.

Take `N#CCCN(CCC#N)c1ccc(/C=C2/N=C(c3cc([N+](=O)[O-])ccc3Cl)OC2=O)cc1` [Compound 637916]: the “Int.* (Ratio) (Interference)” value under setting [1] is given as 0.97 Ratio. Besides, the “Inh. (%) (Inhibition)” value (MBHA with DNA substrate) is on record as 1.1%.

For `CCN(CC)CCNc1ccc2nc(C)n3c4ccc(OC)cc4c(=O)c1c23.Cl` [Compound 637993], the “Int.* (Ratio) (Interference)” value under setting [1] is 0.77 Ratio. Also, the “Inh. (%) (Inhibition)” value (MBHA with DNA substrate) is 37.7%.

For the compound `O=S(=O)(O)c1cc(N=Nc2cc(S(=O)(=O)O)c3cccnc3c2O)ccc1/C=C/c1ccc(N=Nc2cc(S(=O)(=O)O)c3cccnc3c2O)cc1S(=O)(=O)O` [Compound 638352], the “Int.* (Ratio) (Interference)” value under setting [1] is recorded as 0.89 Ratio. In addition, the “Inh. (%) (Inhibition)” value (MBHA with DNA substrate) is listed as 56.2%.

`COc1ccc2ccccc2c1C1OC(=O)c2ccccc21` (centres unmarked) [Compound 638504]: the “Int.* (Ratio) (Interference)” value under setting [1] is 0.90 Ratio. Moreover, the “Inh. (%) (Inhibition)” value (MBHA with DNA substrate) is −2.7%.

Consider `O=C1/C(=C\c2ccccc2)CN(C(=O)/C=C/c2ccccc2)C/C1=C\c1ccccc1` [Compound 638634], for which the “Inh. (%) (Inhibition)” value (MBHA with a DNA substrate) is −20.4%. Besides, the “Int.* (Ratio) (Interference)” value under setting [2] is listed as 0.86 Ratio.

For the compound `Cl.O=C1/C(=C\c2ccc(Cl)c(Cl)c2)CN(C(=O)CCN2CCOCC2)C/C1=C\c1ccc(Cl)c(Cl)c1` [Compound 638646], the “Inh. (%) (Inhibition)” value (MBHA with a DNA substrate) is on record as −3.1%. Under setting [2], the “Int.* (Ratio) (Interference)” value is recorded as 0.76 Ratio.

Consider `CCOC(=O)Nc1nc2ccc(Cn3cccc3)cc2[nH]1` [Compound 639754], for which, under setting [1], the “Int.* (Ratio) (Interference)” value is 1.14 Ratio. Besides, under “MBHA with DNA substrate”, the “Inh. (%) (Inhibition)” value is −18.3%.

Turning to `Nc1ccccc1C(=O)NC(=O)Nc1ccc(Oc2ncc(Br)cn2)c(Cl)c1` [Compound 639828], under setting [1], the “Int.* (Ratio) (Interference)” value was 1.05 Ratio. The “Inh. (%) (Inhibition)” value (MBHA with DNA substrate) was 23.0%.

For `CCN(CC)CCN1C(=O)c2c(c3c4cccc(Cl)c4n(C4OC(CO)C(OC)C(O)C4O)c3c3[nH]c4c(Cl)cccc4c23)C1=O` (centres unmarked) [Compound 640199], under setting [1], the “Int.* (Ratio) (Interference)” value was 0.70 Ratio. In addition, the “Inh. (%) (Inhibition)” value (MBHA with DNA substrate) was 76.4%.

For the compound `Cc1nc(Nc2ccc(Cl)c(Cl)c2)sc1C(/C=C/c1ccc2c(c1)OCO2)=N/Nc1ccc([N+](=O)[O-])cc1[N+](=O)[O-]` [Compound 640335], the “Inh. (%) (Inhibition)” value (MBHA with a DNA substrate) was −24.2%. Also, the “Int.* (Ratio) (Interference)” value under setting [2] is 0.91 Ratio.

Regarding `Cc1ccc(Nc2nc(C)c(C(/C=C/c3ccc(/C=C/C(=N\NC(=O)C[n+]4ccccc4)c4sc(Nc5ccc(C)cc5[N+](=O)[O-])nc4C)cc3)=N/NC(=O)C[n+]3ccccc3)s2)c([N+](=O)[O-])c1.Cl` [Compound 640342], under “MBHA with a DNA substrate”, the “Inh. (%) (Inhibition)” value is listed as −22.4%. Moreover, the “Int.* (Ratio) (Interference)” value under setting [2] is 0.95 Ratio.

For `CN(C)C[C@H]1CC[C@@H](CN(C)C)C1=O.Cl.Cl` [Compound 640391], for the setting “MBHA with a DNA substrate”, the “Inh. (%) (Inhibition)” value is on record as 10.6%. Under setting [2], the “Int.* (Ratio) (Interference)” value was 1.09 Ratio.

`OCCOc1ccc(-c2cc(-c3ccccn3)nc(-c3ccccn3)c2)cc1` [Compound 640499]: the “Inh. (%) (Inhibition)” value (MBHA with a DNA substrate) is −25.9%. Under setting [2], the “Int.* (Ratio) (Interference)” value is on record as 0.91 Ratio.

Consider `CCNCCCCNCCCCNCCCCNCCCCNCC.Cl` [Compound 640506], for which the “Int.* (Ratio) (Interference)” value under setting [1] was 0.91 Ratio. For the setting “MBHA with DNA substrate”, the “Inh. (%) (Inhibition)” value is 71.1%.

These data come from patent US9464064B2, “HCV helicase inhibitors and methods of use thereof” (University of Kansas, priority 2011, dated 2016).
